Results on five molecules are retold here after US20140054163A1, “METHODS FOR REACTING CYSTEINE RESIDUES IN PEPTIDES AND PROTEINS” (University of George Risearch Foundation, Inc., priority 2012, published 2014).

The target in series [1] is T1, Papain from papaya latex (Carica papaya, UniProt P00784).
T1 construct: from tissue; host or cells: papaya latex
T1 sequence (P00784 134-345): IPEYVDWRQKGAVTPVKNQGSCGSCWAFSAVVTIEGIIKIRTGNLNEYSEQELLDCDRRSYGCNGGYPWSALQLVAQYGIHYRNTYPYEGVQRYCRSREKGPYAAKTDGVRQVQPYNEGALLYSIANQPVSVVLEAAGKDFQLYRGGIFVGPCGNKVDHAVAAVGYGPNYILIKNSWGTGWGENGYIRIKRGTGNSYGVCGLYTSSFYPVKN
Kind of series: Photochemical inhibition of papain activity by NQMP-TEG (L-BAPNA hydrolysis rate). The note with it: for Relative activity: PBS. Type of series: biochemical. As to the method:
(§1) Papain was activated by incubation the enzyme with 100-40 fold excess of free cysteine for 45 minutes in PBS solution. The concentration of the papain in the stock solution was determined by its […] at 280 nm (s=57600 M^−1 cm^−1) (Pace et. al., Protein Sci. 1995, 4:2411-2423). The activity of the protease was measured using N-α-benzoyl-L-arginine-p-nitroanilide (L-BAPNA). […] The formation of the latter can be followed by the rise of characteristic absorbance at 410 nm (ε=9800). Water-soluble NQMP-TEG (FIG. 13) was employed for inhibition experiments.
A PBS solution containing 1.7 μM of papain, 80 μM of cysteine and variable amounts of NQMP-TEG was irradiated for 2 minutes with 350 nm fluorescent lamps. A stock solution of BAPNA was then added to a photolysate to achieve 800 μM concentration of the substrate and rate of hydrolysis was measured (Table 5, FIG. 14).
A PBS solution containing 0.91 μM of papain, 44 μM of cysteine and 109 μM of NQMP-TEG was irradiated for 2, 3 or 4 minutes with 350 nm fluorescent lamps. A stock solution of BAPNA was then added to a photolysate to achieve 200 μM concentration of the substrate and rate of hydrolysis was measured (Table 6, FIG. 15).

Series [2] is described as follows: Photochemical stability on irradiation in PBS, HPLC analysis. The note with it: 0.1 mM PBS solutions irradiated separately for 12 minutes, 300 and 350 nm fluorescent lamps. Type of series: physicochemical. As to the method: It is important to note that peptide 4 and NQMP-TEG (1c) are photochemically stable under these conditions. […] Obviously, NQMP 1c still forms oNQM 2c but in the absence of thiols the latter rapidly undergoes hydration back to starting materials.
0.1 mM PBS solutions of NQMP-TEG (2c) and peptide 4 were irradiated separately for 12 minutes using both 300 and 350 nm fluorescent lamps.

Series [3] in a line: Aqueous solubility of NQMP derivatives. The note with it: wholly aqueous solutions.
The nature of series [4]: Cysteine specificity of NQMP photo-click reaction, peptides lacking free cysteine. The note with it: irradiation of peptides 6 and 7 with 4 to 12 equivalents of NQMP-TEG, HPLC analysis. As to the method:
To test the cysteine specificity of NQMP photo-click reaction, two analogs of peptide 4 containing the same amino acid sequence but lacking free cysteine were prepared. In nonapeptide 6 cysteine residue was replaced with methionine, while the thiol group in 4 was converted into disulfide bond by oxidative dimerization to form oligopeptide 7. […] These experiments show the high specificity of addition of photochemically generated oNQM to cysteine thiol group.
0.1 mM PBS solutions of peptides 4, 6, and 7 were irradiated with 300 or 350 nm fluorescent lamps in the presence of variable amounts of NQMP-TEG (2c, 0.1-0.4 mM). Composition of the photolysates was analyzed using HPLC (FIG. 17). Peptide 4-NQMP-TEG conjugate (5) was isolated using semi-prep C-18 HPLC column and characterized by ESI-HRMS (FIG. 18). The concentration of labeled peptide 5 was determined by UV spectroscopy using characteristic 330 nm band of NQMP chromophore. This solution was then used in calibration of HPLC instruments.

For series [5], the target named is T1, Papain from papaya latex. Kind of series: Photochemical restoration (re-activation) of NQMP-inhibited papain activity. The note with it: for Papain Activity: photolysate with inhibited papain, NQMP-TEG, cysteine plus 2-(2-(vinyloxy)ethoxy)ethanol equal to initial NQMP-TEG. The series is classed as biochemical. As to the method:
as §1
A sample of deactivated papain was prepared as described above. The protein was separated from low molecular weight compounds using gel filtration (Sephadex PD-10 column). To check for the completeness of inhibition an excess of cysteine was added to a PBS solution of the inhibited papain and incubated for 45 minutes. […] This solution was then re-irradiated with 350 nm fluorescent lamps for 15 minutes.
Alternatively, re-activation of papain was achieved without isolation of inhibited enzyme. Ethyl vinyl ether derivative, 2-(2-(vinyloxy)ethoxy)ethanol, was added to a photolysate containing inhibited papain, NQMP-TEG, and cysteine in PBS solution. The amount of vinyl ether added was equal to the initial amount of NQMP-TEG.

For “8-TEG-3-(hydroxymethyl)naphthalen-2-ol [NQMP-TEG]”, the Relative activity at Papain from papaya latex [1] (100 μM NQMP-TEG, 1.7 μM papain, 80 μM cysteine, 2 minutes irradiation at 350 nm, 800 μM BAPNA) came out at 65%; at Papain from papaya latex [1] (109 μM NQMP-TEG, 0.91 μM papain, 44 μM cysteine, 2 minutes irradiation at 350 nm, 200 μM BAPNA), 52%; on Papain from papaya latex [1] (109 μM NQMP-TEG, 0.91 μM papain, 44 μM cysteine, 3 minutes irradiation at 350 nm, 200 μM BAPNA), 27%; on Papain from papaya latex [1] (109 μM NQMP-TEG, 0.91 μM papain, 44 μM cysteine, 4 minutes irradiation at 350 nm, 200 μM BAPNA), 0%; on Papain from papaya latex [1] (109 μM NQMP-TEG, 0.91 μM papain, 44 μM cysteine, irradiation time 0 minutes, 200 μM BAPNA) it was 100%; at Papain from papaya latex [1] (150 μM NQMP-TEG, 1.7 μM papain, 80 μM cysteine, 2 minutes irradiation at 350 nm, 800 μM BAPNA) it was 48%. The Relative activity at Papain from papaya latex [1] (200 μM NQMP-TEG, 1.7 μM papain, 80 μM cysteine, 2 minutes irradiation at 350 nm, 800 μM BAPNA) amounted to 43%; at Papain from papaya latex [1] (250 μM NQMP-TEG, 1.7 μM papain, 80 μM cysteine, 2 minutes irradiation at 350 nm, 800 μM BAPNA) it was 27%; on Papain from papaya latex [1] (300 μM NQMP-TEG, 1.7 μM papain, 80 μM cysteine, 2 minutes irradiation at 350 nm, 800 μM BAPNA), 17%; at Papain from papaya latex [1] (400 μM NQMP-TEG, 1.7 μM papain, 80 μM cysteine, 2 minutes irradiation at 350 nm, 800 μM BAPNA) it was 0%. The “Concentration required to completely inhibit the activity of Papain” value on Papain from papaya latex [1] (2 minutes of irradiation at 350 nm, 1.7 μM papain, 80 μM cysteine) was “about 350 μM”. In addition, in series [2], the “Photochemical stability (decomposition or losses by HPLC)” value is on record as “No decomposition or losses of materials were detected”. For the same molecule, the Aqueous solubility entry in series [3] is recorded as “freely soluble in wholly aqueous solutions up to millimolar concentrations”. In addition, in series [4], the “Labeling of peptides lacking free cysteine (selectivity)” value is “produced no labeled products”. The “Papain Activity” value on Papain from papaya latex [5] (350 nm irradiation 0 minutes) is 0%; on Papain from papaya latex [5] (350 nm irradiation 3 minutes), 28%; on Papain from papaya latex [5] (350 nm irradiation 4 minutes), 40%; on Papain from papaya latex [5] (350 nm irradiation 5 minutes) it was 47%; on Papain from papaya latex [5] (350 nm irradiation 7 minutes) it was 58%; on Papain from papaya latex [5] (350 nm irradiation 8 minutes), 76%.

Regarding `OCc1cc2ccccc2cc1O` [1a, 3-hydroxy-2-naphthalenemethanol], in series [3], the Aqueous solubility result is “rather low aqueous solubility”.

For the molecule `OCc1cc2cccc(O)c2cc1O` [1b, 6-(hydroxymethyl)naphthalene-1,7-diol], the Aqueous solubility entry in series [3] is recorded as “rather low aqueous solubility”.

With “Ac-Cys-Lys-Tyr-Trp-Gly-Arg-Asp-Ser-NH2 (Ac-CKYWGRDS-NH2) [compound 4]”, in series [2], the “Photochemical stability (decomposition or losses by HPLC)” value is recorded as “No decomposition or losses of materials were detected”.

B1: inhibited papain: papain deactivated by irradiation with NQMP-TEG; a single NQMP-TEG unit added as thioether (conjugate, UniProt P00784 134-345, looked up)
Papain: T1 sequence (P00784 134-345)
modifications: NQMP-TEG thioether adduct, inactivated
Take B1: the “Protease activity (L-BAPNA cleavage) after incubation with excess cysteine” value in the series with Papain from papaya latex [5] (gel-filtered inhibited papain in PBS, excess of cysteine, 45 minutes, no re-irradiation) was “does not cleave L-BAPNA”. Besides, in the series with Papain from papaya latex [5] (gel-filtered inhibited papain, no NQMP reagent, re-irradiated with 350 nm lamps for 15 minutes), the “Restoration of papain activity relative to wild type papain” value is listed as 85-92%.
